Series [1] concerns β3 human transgenic mice. As to the kind of experiment: Thermogenesis (Oxymax indirect calorimeter) in β3 transgenic (Tg) mice. The settings on record: percent increase in thermogenesis over baseline; for change in vivo at 10 mg/kg: Mus musculus, ip, IP 10 mg/kg. It counts as in vivo, mice (FVB). The text has this:
Evaluation in β3 Knockout(KO) and β3 Transgenic(Tg) Mice: The ability of compounds of this invention to treat or inhibit disorders related to insulin resistance or hyperglycemia was also confirmed with representative compounds of this invention in an in vivo standard pharmacological test procedure which compared thermogenesis in transgenic mice (Tg mice) and β3-knockout mice (KO mice).
β3-Adrenergic receptor knockout mice and β3 human transgenic mice are created on an inbred FVB background (Susulic, V. S., et.al., J. Biol. Chem., 1995, 270 (49), 29483-29492). Female FVB β3 transgenic and β3 knockout mice were used to determine in vivo activity and selectivity of β3 agonists. […] These compounds were also selective in being 100-fold less responsive and partial agonists when tested in β1 and β2 transfected CHO cells. Compounds were tested for increased thermogenesis using the Oxymax indirect calorimeter (Columbus Instruments, Columbus, Ohio). Fed animals were placed in chambers for 3 hours to obtain baseline O2 and CO2 values. Eight fed mice were weighed in pairs and placed in 4 chambers, two per chamber. The relative gas content of each chamber was sampled and recorded at 10 to 12 minute intervals. For each sample, energy expenditure values were calculated by the Oxymax and expressed as kcal/hr. After 3 hours of baseline measurement, the mice were removed, treated and replaced in the chambers. The β3 agonists were injected at doses between 0.1 and 20 mg/kg i.p. and between 1.0 and 30 mg/kg for oral administration. Compounds in 10 mM or 10 mg/ml DMSO solutions were suspended in 0.5% methylcellulose: 0.1% tween-80 and injected i.p. or administered by oral gavage. Some compounds were suspended in 5.0% tween-80 for oral administration. Post-treatment kcal/hr values were taken between 40 minutes and 2.5 hours later. The 6 to 10 sample sections of the pre-treatment and post-treatment periods, which appear to best represent stable resting thermogenesis, were selected. Each of these sample values was corrected for body weight and used such that each pair of mice serves as its own baseline for both T test and percent increase in thermogenesis calculations. An ANOVA and a one sided T test (H1: Post>Pre) are performed using the SAS software modified to down weight extreme values. In a separate set of calculations, values that appear to be too high to represent resting thermogenesis are discarded (activity monitor sampling associated spikes in thermogenesis with ambulatory activity). The mean baseline value for each chamber is subtracted from mean post-treatment value for that chamber. This baseline-subtracted value is divided by the mean baseline value and multiplied by 100 to obtain a percent increase in thermogenesis for each chamber. The combined mean percent increase, standard deviation, and standard error of the mean for each chamber is calculated. Compounds were considered active if they were able to produce a statistically significant 15% increase in thermogenesis in β3 transgenic mice and no significant increase in β3 knockout mice.

For series [2], the target named is T1, human β3 receptors (Homo sapiens, UniProt P13945).
T1 construct: Full length β3 AR clones (402 amino acids) containing the last 6 amino acids of hβ3—AR; expressed in transfected cells; host or cells: CHO cells
T1 sequence (P13945 whole entry): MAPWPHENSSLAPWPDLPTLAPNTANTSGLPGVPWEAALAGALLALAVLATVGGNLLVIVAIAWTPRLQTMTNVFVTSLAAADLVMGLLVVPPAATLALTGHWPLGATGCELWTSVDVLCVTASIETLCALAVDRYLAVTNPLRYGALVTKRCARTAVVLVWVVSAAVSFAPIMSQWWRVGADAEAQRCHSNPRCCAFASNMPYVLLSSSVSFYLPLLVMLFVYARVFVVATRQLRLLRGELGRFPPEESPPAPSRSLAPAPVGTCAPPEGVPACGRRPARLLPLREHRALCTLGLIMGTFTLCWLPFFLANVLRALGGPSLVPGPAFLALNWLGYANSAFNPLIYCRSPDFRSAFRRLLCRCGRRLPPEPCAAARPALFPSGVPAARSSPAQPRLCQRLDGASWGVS
The experiment in a line: cAMP response (SPA) in CHO cells expressing cloned human β3 adrenergic receptor. Format: cell-based. The settings on record: for pEC50: CHO cells expressing human β3 receptor, cAMP, 30 min incubation, 10^−9 M to 10^−5 M; for IA(β3): maximal response compared to the maximal response of isoproterenol at 10^−5 M. The gist of the method: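 CHO cells transfected with cloned human β3-AR were incubated with compound at 37° C for 30 min, stopped with 0.2N HCl and neutralized. cAMP was measured by SPA. Activity is expressed as per cent of the maximal isoproterenol (10^−5 M) response.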

The structures appear in SMILES notation. pEC50: −log10 of the molar value. Where a name gives a salt, the structure may show the parent alone.

`O=C(O)c1cccc(NC(=O)N2CCC(CNC[C@H](O)COc3cccc4[nH]c5ccccc5c34)CC2)c1` [Example 51, 3-[(4-{[(2S)-3-(9H-Carbazol-4-yloxy)-2-hydroxy-propylamino]-methyl}-piperidine-1-carbonyl)-amino]-benzoic Acid]: the melting point was 238 to 240 °C (dec.). Regarding `CCCCCCNC(=O)Nc1ccc(S(=O)(=O)N2CCC(CNC[C@H](O)COc3cccc4[nH]c5ccccc5c34)CC2)cc1` [Example 58, 1-[4-(4-{[(2S)-3-(9H-Carbazol-4-yloxy)-2-hydroxy-propylamino]-methyl}-piperidine-1-sulfonyl)-phenyl]-3-hexyl-urea], in series [1] (mouse type hetero), the change in vivo at 10 mg/kg was -3%. With `CCCCCCCCNC(=O)Nc1ccc(S(=O)(=O)N2CCC(CNC[C@H](O)COc3ccc(O)cc3)CC2)cc1` [Example 69, 1-[4-(4-{[(2S)-2-Hydroxy-3-(4-hydroxy-phenoxy)-propylamino]-methyl}-piperidine-1-sulfonyl)-phenyl]-3-octyl-urea], the change in vivo at 10 mg/kg in series [1] (mouse type hetero) and in series [1] (mouse type homo) was 24% in each case. Further, in series [1] (mouse type hetero, gavage 30 mg/kg), the “Thermogenesis, Transgenic Mice, Gavage %” value was 14%. `O=C(Nc1ccc(S(=O)(=O)N2CCC(CNC[C@H](O)COc3ccc(O)cc3)CC2)cc1)Nc1ccccn1` [Example 66, 1-[4-(4-{[(2S)-2-Hydroxy-3-(4-hydroxy-phenoxy)-proplamino]-methyl}-piperidine-1-sulfonyl)-phenyl]-3-pyridin-2-yl-urea] registered a melting point of 189 °C. Moreover, the change in vivo at 10 mg/kg in series [1] (mouse type homo) came to 4%. With `CCCCCCCCNC(=O)Nc1ccc(S(=O)(=O)N2CCC(CNC[C@H](O)COc3ccc(O)c4c3CCC(=O)N4)CC2)cc1` [Example 74, 1-[4-(4-{[(2S)-2-Hydroxy-3-(8-hydroxy-2-oxo-1,2,3,4-tetrahydro-quinolin-5-yloxy)-propylamino]-methyl}-piperidine-1-sulfonyl)-phenyl]-3-octyl-urea], in series [1] (mouse type homo), the change in vivo at 10 mg/kg was 18%. As to `O[C@@H](CNCC1CCN(CCC(F)(F)F)CC1)COc1cccc2[nH]c3ccccc3c12` [Example 10, (2S)-1-(9H-Carbazol-4-yloxy)-3-{[1-(3,3,3-trifluoro-propyl)-piperidin-4-ylmethyl]-amino}-propan-2-ol], the change in vivo at 10 mg/kg in series [1] (mouse type hetero) was -15%. As for `CCCCCCNC(=O)Nc1ccc(S(=O)(=O)N2CCC(CNC[C@H](O)COc3ccc(O)cc3)CC2)cc1` [Example 59, 1-Hexyl-3-[4-(4-{[(2S)-2-hydroa-3-(4-hydroxy-phenoxy)-propylamino]-methyl}-piperidine-1-sulfonyl)-phenyl]-urea], in series [1] (mouse type homo), the change in vivo at 10 mg/kg was 5%.

In the case of `O=C(NCc1cc(F)ccc1F)Nc1ccc(S(=O)(=O)N2CCC(CNC[C@H](O)COc3ccc(O)cc3)CC2)cc1` [Example 77, 1-(2,5-Difluoro-benzyl)-3-[4-(4-{[(2S)-2-hydroxy-3-(4-hydroxy-phenoxy)-propylamino]-methyl}-piperidine-1-sulfonyl)-phenyl]-urea], in series [1] (mouse type homo), the change in vivo at 10 mg/kg was found to be 4%. As for `CS(=O)(=O)Nc1cc(OC[C@@H](O)CNCC2CCN(S(=O)(=O)c3ccc(NC(=O)NCc4cc(F)ccc4F)cc3)CC2)ccc1O` [Example 79, N-(5-{(2S)-3-[(1-{4-[3-(2,5-Difluoro-benzyl)-ureido]-benzenesulfonyl}-piperidin-4-ylmethyl)-amino]-2-hydroxy-propoxy}-2-hydroxy-phenyl)-methanesulfonamide], the change in vivo at 10 mg/kg in series [1] (mouse type homo) is 10%.

`O=S(=O)(c1ccc(-n2cccn2)cc1)N1CCC(CNC[C@H](O)COc2ccc(O)cc2)CC1` [Example 93, 4-(2-Hydroxy-3-{[1-(4-pyrazol-1-yl-benzenesulfonyl)-piperidin-4-ylmethyl]-amino}-propoxy)-phenol] yielded a melting point of 169 to 171 °C. Moreover, in series [2], the pEC50 is 6.46 and the “IA(β3)” value came out at 0.99. Taken in the same sequence, the figures for `OCCCCCCCCCCCCN1CCC(CNC[C@H](O)COc2cccc3[nH]c4ccccc4c23)CC1` [Example 30, 12-(4-{[(2S)-3-(9H-Carbazol-4-yloxy)-2-hydroxy-propylamino]-methyl}-piperidin-1-yl)-dodecan-1-ol] were 110 °C, 5.91 and 0.53.

In turn, `O[C@@H](CNCC1CCN(c2cc(C(F)(F)F)ccn2)CC1)COc1cccc2[nH]c3ccccc3c12` [Example 5, (2S)-1-(9H-Carbazol-4-yloxy)-3-[(4′-trifluoromethyl-3,4,5,6-tetrahydro-2H-[1,2′]bipyridinyl-4-ylmethyl)-amino]-propan-2-ol] came in with a melting point of 137 to 138 °C. Take `O=C(Nc1ccccc1)Nc1ccc(S(=O)(=O)N2CCC(CNC[C@H](O)COc3ccc(O)cc3)CC2)cc1` [Example 63, 1-[4-(4-{[(2S)-2-Hydroxy-3-(4-hydroxy-phenoxy)-propylamino]-methyl}-piperidine-1-sulfonyl)-phenyl]-3-phenyl-urea]: the change in vivo at 10 mg/kg in series [1] (mouse type homo) amounted to 3%. For `O/N=C1\c2ccccc2-c2c(OC[C@@H](O)CNCC3CCN(c4ccnc5cc(C(F)(F)F)ccc45)CC3)cccc21` (as salt: hydrochloride) [Example 4, 4-((2S)-2-Hydroxy-3-{[1-(7-trifluoromethyl-quinolin-4-yl)-piperidin-4-ylmethyl]-amino}-propoxy)-fluoren-9-one Oxime], the melting point is 171 °C. Consider `O[C@@H](CNCC1CCN(CCC(F)(F)F)CC1)COc1ccc(Br)c2[nH]c3ccccc3c12` [Example 16, (2S)-1-(1-Bromo-9H-carbazol-4-yloxy)-3-{[1-(3,3,3-trifluoro-propyl)-piperidin-4-ylmethyl]-amino}-propan-2-ol], for which the melting point was determined as 79 °C. Consider `O=C(NCCCc1cccs1)Nc1ccc(S(=O)(=O)N2CCC(CNC[C@H](O)COc3ccc(O)cc3)CC2)cc1` [Example 75, 1-[4-(4-1{[(2S)-2-Hydroxy-3-(4-hydroxy-phenoxy)-propylamino]-methyl}-piperidine-1-sulfonyl)-phenyl]-3-(3-thiophen-2-yl-propyl)-urea], for which, in series [1] (mouse type homo), the change in vivo at 10 mg/kg turned out to be 5%.

One may read the melting point as the temperature of the solid-liquid transition. Broadly, the pEC50 is −log10 of the EC50, conventionally taken in molar units.

Values taken from patent publication US6506901B2, “Substituted 2-(S)-hydroxy-3-(piperidin-4-yl-methylamino)-propyl ethers and substituted 2-aryl-2-(R)-hydroxy-1-(piperidin-4-yl-methyl)-ethylamine β-3 adrenergic receptor agonists” (Wyeth, priority 2000, dated 2003).
